Target: EGFR (Homo sapiens, UniProt P00533)
Experiment: EGFR kinase assay kit (BPS Bioscience), Kinase-Glo MAX luminescence, poly(Glu:Tyr […]) substrate
Assay type: biochemical

Sequence of EGFR (P00533 25-1210): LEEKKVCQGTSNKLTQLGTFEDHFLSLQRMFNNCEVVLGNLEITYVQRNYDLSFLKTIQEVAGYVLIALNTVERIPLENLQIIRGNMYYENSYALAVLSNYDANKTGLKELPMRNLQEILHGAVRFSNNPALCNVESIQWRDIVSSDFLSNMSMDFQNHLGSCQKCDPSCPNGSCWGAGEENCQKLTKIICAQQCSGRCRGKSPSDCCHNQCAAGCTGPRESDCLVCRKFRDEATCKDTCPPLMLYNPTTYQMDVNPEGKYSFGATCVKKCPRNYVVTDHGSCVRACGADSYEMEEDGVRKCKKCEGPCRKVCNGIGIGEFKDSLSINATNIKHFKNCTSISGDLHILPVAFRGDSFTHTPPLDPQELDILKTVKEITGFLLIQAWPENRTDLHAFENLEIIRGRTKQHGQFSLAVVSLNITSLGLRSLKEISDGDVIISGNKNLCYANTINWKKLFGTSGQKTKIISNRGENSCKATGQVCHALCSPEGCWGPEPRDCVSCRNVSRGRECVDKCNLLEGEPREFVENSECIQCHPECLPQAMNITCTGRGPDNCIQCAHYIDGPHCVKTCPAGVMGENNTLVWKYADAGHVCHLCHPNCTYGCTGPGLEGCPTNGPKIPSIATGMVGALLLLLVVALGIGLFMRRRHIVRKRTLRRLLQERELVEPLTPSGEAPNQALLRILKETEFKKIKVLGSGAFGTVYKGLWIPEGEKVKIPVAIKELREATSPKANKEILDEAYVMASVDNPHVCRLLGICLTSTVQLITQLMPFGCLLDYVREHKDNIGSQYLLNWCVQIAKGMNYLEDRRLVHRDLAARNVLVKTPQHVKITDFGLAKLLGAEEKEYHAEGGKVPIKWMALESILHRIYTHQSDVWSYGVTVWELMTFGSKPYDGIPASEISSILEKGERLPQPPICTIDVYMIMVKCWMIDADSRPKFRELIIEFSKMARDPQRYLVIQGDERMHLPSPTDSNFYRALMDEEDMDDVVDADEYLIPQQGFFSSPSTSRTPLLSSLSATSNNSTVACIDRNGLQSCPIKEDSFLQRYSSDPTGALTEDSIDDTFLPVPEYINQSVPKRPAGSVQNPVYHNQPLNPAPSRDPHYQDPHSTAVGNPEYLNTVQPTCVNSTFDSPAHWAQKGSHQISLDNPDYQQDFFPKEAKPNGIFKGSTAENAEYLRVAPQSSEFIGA

IC50: 42.9 ± 0.8 nM
SMILES: O=C(Nc1ccc(Br)cc1)NN1C(=O)c2ccccc2C1=O [7c, 1-(4-Bromophenyl)-3-(1,3-dioxoisoindolin-2-yl)urea]

Source: PMC10779787, “An Efficient Synthesis of 1-(1,3-Dioxoisoindolin-2-yl)-3-aryl Urea Analogs as Anticancer and Antioxidant Agents: An Insight into Experimental and In Silico Studies” (Molecules, 2023)
